Data on 8 molecules can be found in publication PMC10409515, “Enzymatic properties of alcohol dehydrogenase PedE_M.s. derived from Methylopila sp. M107 and its broad metal selectivity” (Frontiers in Microbiology, 2023).

The assay relates to T1, PedE_M.s.
T1 construct: gene pedE; C-terminal 8xHis tag; codon-optimised gene expressed in Methylorubrum extorquens AM1 (quadruple mutant) with Ca2+; Ni-NTA purified; signal peptide not discussed
Nature of the assay: PMS-mediated DCPIP reduction at […] nm; Michaelis-Menten fit. As to conditions: PMS 1 mM, DCPIP 150 uM, 45 mM NH4Cl, 100 mM Tris-HCl pH 9.0; optimal conditions (30 °C optimum; general assay text says about 26 °C); Ca2+-PQQ enzyme; read-out: Methylopila sp. M107 / Km. The class given is biochemical.

In the case of `CCCCO` [Butanol], the Km was 39 ± 15 µM.

Turning to `CCO` [Ethanol], the Km is 28 ± 6 µM.

Take `C=O` [Formaldehyde]: the Km was determined as 39 ± 21 µM.

On to `CCCCCCO` [Hexanol], for which the Km came to 79 ± 14 µM.

As to `CC(C)O` [Isopropanol], the Km worked out at 35 ± 12 µM.

Take `CO` [Methanol]: the Km was found to be 25 ± 6 µM.

`CCCCCO` [Pentanol]: the Km came out at 49 ± 14 µM.

Turning to `CCCO` [Propanol], the Km is 25 ± 6 µM.
